ChEMBL document CHEMBL1201862, “PubChem BioAssay data set” (2004)
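Five concentrations, 48 hours, 96-well plates. Abbreviation: GI50, concentration required for 50% inhibition of growth.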 Calls of active or inactive are those of the source. No stated cut-off is given here; in the data, active = GI50 up to about 1.1 µM and inactive = higher.

Legend:
Assay in all cases: inhibition of tumour cell growth, NCI panel, 48 h
786-0 = tested on: 786-0
ACHN = tested on: ACHN
CCRF-CEM = tested on: CCRF-CEM
DMS-114 = tested on: DMS-114
EKVX = tested on: EKVX
HOP-62 = tested on: HOP-62
HT-29 = tested on: HT-29
IGROV-1 = tested on: IGROV-1
Malme-3M = tested on: Malme-3M
NCI-H460 = tested on: NCI-H460
OVCAR-5 = tested on: OVCAR-5
SK-MEL-5 = tested on: SK-MEL-5
SN12C = tested on: SN12C
SR = tested on: SR
UACC-257 = tested on: UACC-257
UO-31 = tested on: UO-31
COLO 205 = tested on: COLO 205
SK-OV-3 = tested on: SK-OV-3

Row | SMILES | GI50 (786-0) | GI50 (ACHN) | GI50 (CCRF-CEM) | GI50 (DMS-114) | GI50 (EKVX) | GI50 (HOP-62) | GI50 (HT-29) | GI50 (IGROV-1) | GI50 (Malme-3M) | GI50 (NCI-H460) | GI50 (OVCAR-5) | GI50 (SK-MEL-5) | GI50 (SN12C) | GI50 (SR) | GI50 (UACC-257) | GI50 (UO-31) | GI50 (COLO 205) | GI50 (SK-OV-3)
1 | COC(=O)NC(=O)c1cn(CCCOC(=O)CCCCCCCCC(=O)OCCCn2cc(C(=O)NC(=O)OC)c(=O)[nH]c2=O)c(=O)[nH]c1=O | 88.5 µM (inactive) | > 100 µM (inactive) | > 100 µM (inactive) | > 100 µM (inactive) | 55.2 µM (inactive) | 23.1 µM (inactive) | > 100 µM (inactive) | 85.1 µM (inactive) | > 100 µM (inactive) | > 100 µM (inactive) | > 100 µM (inactive) | > 100 µM (inactive) | > 100 µM (inactive) | > 100 µM (inactive) | > 100 µM (inactive) | > 100 µM (inactive) | – | –
2 | COc1cccc2c1[C@H]1OC(=O)NC1CCCCC2 (stereo partly drawn) | > 100 µM (inactive) | > 100 µM (inactive) | > 100 µM (inactive) | > 100 µM (inactive) | > 100 µM (inactive) | > 100 µM (inactive) | > 100 µM (inactive) | > 100 µM (inactive) | > 100 µM (inactive) | > 100 µM (inactive) | > 100 µM (inactive) | > 100 µM (inactive) | > 100 µM (inactive) | – | > 100 µM (inactive) | > 100 µM (inactive) | > 100 µM (inactive) | > 100 µM (inactive)
3 | COc1ccc2c(CCNC(C)=O)c(C(C)=O)[nH]c2c1 | > 100 µM (inactive) | > 100 µM (inactive) | > 100 µM (inactive) | > 100 µM (inactive) | > 100 µM (inactive) | > 100 µM (inactive) | > 100 µM (inactive) | > 100 µM (inactive) | – | > 100 µM (inactive) | > 100 µM (inactive) | – | > 100 µM (inactive) | > 100 µM (inactive) | > 100 µM (inactive) | > 100 µM (inactive) | > 100 µM (inactive) | –
4 | CSc1nc(NC2OCC(OC(C)=O)C(OC(C)=O)C2OC(C)=O)c2c(OC(C)=O)c(C)c(=O)oc2n1 (stereo not drawn) | > 100 µM (inactive) | > 100 µM (inactive) | > 100 µM (inactive) | > 100 µM (inactive) | > 100 µM (inactive) | > 100 µM (inactive) | > 100 µM (inactive) | > 100 µM (inactive) | > 100 µM (inactive) | > 100 µM (inactive) | > 100 µM (inactive) | > 100 µM (inactive) | > 100 µM (inactive) | – | > 100 µM (inactive) | > 100 µM (inactive) | > 100 µM (inactive) | > 100 µM (inactive)
5 | CCOC(=O)NC(=O)c1cn(CCCO)c(=O)[nH]c1=O | > 100 µM (inactive) | > 100 µM (inactive) | > 100 µM (inactive) | > 100 µM (inactive) | > 100 µM (inactive) | > 100 µM (inactive) | > 100 µM (inactive) | > 100 µM (inactive) | > 100 µM (inactive) | > 100 µM (inactive) | > 100 µM (inactive) | > 100 µM (inactive) | > 100 µM (inactive) | – | > 100 µM (inactive) | > 100 µM (inactive) | > 100 µM (inactive) | > 100 µM (inactive)
6 | CCOC(=O)N1C(=O)C2C3C=CC(C2C1=O)C1C2C(=O)N(C(=O)OCC)C(=O)C2C31 (stereo not drawn) | > 83 µM (inactive) | > 100 µM (inactive) | > 93.1 µM (inactive) | > 45.9 µM (inactive) | > 100 µM (inactive) | > 100 µM (inactive) | > 100 µM (inactive) | > 100 µM (inactive) | > 100 µM (inactive) | > 42.7 µM (inactive) | > 100 µM (inactive) | > 100 µM (inactive) | > 100 µM (inactive) | – | > 100 µM (inactive) | > 100 µM (inactive) | 98.9 µM (inactive) | > 100 µM (inactive)
7 | CC1=C(C)C(=O)c2c(cc3ccc4ccccc4n23)C1=O | > 100 µM (inactive) | > 100 µM (inactive) | > 100 µM (inactive) | > 100 µM (inactive) | > 100 µM (inactive) | – | > 100 µM (inactive) | > 100 µM (inactive) | > 100 µM (inactive) | > 100 µM (inactive) | > 100 µM (inactive) | > 100 µM (inactive) | > 100 µM (inactive) | > 100 µM (inactive) | – | > 100 µM (inactive) | > 100 µM (inactive) | > 100 µM (inactive)
8 | O=C1CCN2C(=O)CCN12 | > 100 µM (inactive) | > 100 µM (inactive) | > 100 µM (inactive) | > 100 µM (inactive) | > 100 µM (inactive) | > 100 µM (inactive) | > 100 µM (inactive) | – | > 100 µM (inactive) | > 100 µM (inactive) | > 100 µM (inactive) | – | > 100 µM (inactive) | > 100 µM (inactive) | > 100 µM (inactive) | > 100 µM (inactive) | > 100 µM (inactive) | > 100 µM (inactive)
9 | COC(=O)C1C(=O)O[C@@H](c2ccc(OC)cc2)C1C(=O)OC (stereo partly drawn) | > 100 µM (inactive) | > 100 µM (inactive) | > 100 µM (inactive) | > 100 µM (inactive) | > 100 µM (inactive) | > 100 µM (inactive) | > 100 µM (inactive) | > 100 µM (inactive) | > 100 µM (inactive) | – | > 100 µM (inactive) | > 100 µM (inactive) | > 100 µM (inactive) | > 100 µM (inactive) | > 100 µM (inactive) | > 100 µM (inactive) | > 100 µM (inactive) | > 100 µM (inactive)
10 | CN(CCN(C)C(=O)CCOS(C)(=O)=O)C(=O)CCOS(C)(=O)=O | > 100 µM (inactive) | > 100 µM (inactive) | 24.3 µM (inactive) | > 100 µM (inactive) | > 100 µM (inactive) | 59 µM (inactive) | > 100 µM (inactive) | > 100 µM (inactive) | > 100 µM (inactive) | 19.5 µM (inactive) | > 100 µM (inactive) | > 100 µM (inactive) | > 100 µM (inactive) | 15.6 µM (inactive) | > 100 µM (inactive) | – | > 100 µM (inactive) | > 100 µM (inactive)
11 | O=C(Nc1c(O)[nH]c(=S)[nH]c1=O)c1ccccc1 | > 100 µM (inactive) | > 100 µM (inactive) | > 100 µM (inactive) | > 100 µM (inactive) | – | > 100 µM (inactive) | > 100 µM (inactive) | > 100 µM (inactive) | > 100 µM (inactive) | > 100 µM (inactive) | > 100 µM (inactive) | > 100 µM (inactive) | > 100 µM (inactive) | > 100 µM (inactive) | > 100 µM (inactive) | > 100 µM (inactive) | > 100 µM (inactive) | > 100 µM (inactive)
12 | C/C(CCN(C)C)=N/O | 2.81 µM (inactive) | 0.918 µM (active) | 0.194 µM (active) | 0.8 µM (active) | 1.55 µM (inactive) | 1.77 µM (inactive) | 0.658 µM (active) | 18.9 µM (inactive) | – | 1.64 µM (inactive) | 18.7 µM (inactive) | – | 14.3 µM (inactive) | 0.281 µM (active) | 15.7 µM (inactive) | 16 µM (inactive) | 0.597 µM (active) | 17.9 µM (inactive)
